# Measurements taken from PubChem BioAssay AID1996.
# Settings: buffer; pH 7.4; 200.0 µM
row,SMILES,solubility kinetic [µg/mL]
1,COc1ccc(CN=C(C#N)C2=C(O)c3ccccc3C2=O)cc1,0.8
2,CC1=CC(C)(C)[N+](C)(C)c2ccccc21.[I-],41
3,Cc1nnc(NS(=O)(=O)c2ccc(N)cc2)s1,> 40.5
4,COc1ccc(CC(=O)OCC(=O)NCc2ccc(C)cc2)cc1OC,> 53.6
5,CSc1cccc(NC(=O)CNS(=O)(=O)c2ccccc2)c1,> 50.5
6,COc1ccc(OC)c(CNC(=O)c2coc(=O)c3ccccc23)c1,> 50.9
7,CC1CC(C)CN(C(=O)CSc2ncnc3sccc23)C1 (stereo not given),17.1
8,Cn1c(=O)c2c(nc3n2CC(COc2ccccc2)O3)n(C)c1=O (stereo not given),> 49.2
9,O=C(Nc1csc(Cl)c1)c1ccccc1,6.2
10,CC1CCN(C(=O)CSc2nc3ncccc3[nH]2)CC1,> 43.6
11,O=C(O)CCCN1C(=O)c2ccccc2Sc2ncccc21,> 47.2
12,CCN(CC)C(=O)C(Oc1ccc(C)nc1[N+](=O)[O-])c1ccccc1 (stereo not given),48.6
13,Cc1ccc(C(=O)Nc2ccccc2N2CCCCC2)cc1,< 0.3
14,Cc1ccnc(NS(=O)(=O)c2ccc3c(c2)CCO3)c1,10.4
15,CC(=O)NC(Cc1ccccc1)Cc1ccccc1,> 38
16,O=c1c2ccccc2[nH]c(=S)n1Cc1ccc2c(c1)OCO2,< 0.3
17,CC(C)Cn1c(N)c(C(=O)COC(=O)c2cccn2C)c(=O)n(C)c1=O,> 54.4
18,CC(=O)c1ccc(NC(=S)N2CCC(Cc3ccccc3)CC2)cc1,2.8
19,O=C(COC(=O)Cc1cccc(C(F)(F)F)c1)NC(=O)NC1CCCC1,32.1
20,C=CCOc1ccccc1CNCc1ccc(F)cc1.Cl,> 46.2
21,COC(=O)c1ccc(NC(=O)c2cccc(C)c2)cc1,5.4
22,O=C(c1cc2cc(Cl)ccc2oc1=O)N1CCCCCCC1,7.6

row,SMILES,solubility kinetic [µg/mL]
1,O=C(c1ccc(S(=O)(=O)N2CCCC2)cc1)N1CCCCCC1,> 50.5
2,COP(=O)(OC)C(Nc1ccc([N+](=O)[O-])cc1)c1ccccc1 (stereo not given),> 50.4
3,O=C(Nc1ccc(Nc2ccccc2)cc1)c1ccc(Cl)cc1,0.4
4,Cc1cc(Oc2ccc(N)cn2)cc(C)c1Cl,27.6
5,CCNC(=S)N1CCC(C(=O)c2ccc(Cl)cc2)CC1,> 46.6
6,O=[N+]([O-])/C(=C\Nc1ccc(F)cc1F)S(=O)(=O)c1ccccc1,> 51
7,CC(Sc1nnc(NC2CC2)s1)C(=O)Nc1ccc(S(N)(=O)=O)cc1 (stereo not given),> 59.9
8,O=c1c2c([N+](=O)[O-])cc([N+](=O)[O-])cc2sn1Cc1ccccc1,17.2
9,O=C(COC(=O)Cc1ccc(Br)cc1)NCC1CCCO1 (stereo not given),> 53.4
10,N#Cc1c(NC(=O)c2ccco2)sc2c1CCC2,9.4
11,O=C(CCCc1ccccc1)NCCCc1ccccc1,33
12,CC(=O)c1ccc(NC(=S)N2CCN(CCO)CC2)cc1,> 46.1
13,CC12CCC(C1)C(C)(C)C2NS(=O)(=O)c1ccc(F)cc1 (stereo not given),6.9
14,CC(=O)c1cccc(NC(=O)Nc2nc(C)cc(C)n2)c1,1.8
15,CCOC(=O)c1c(NC(=O)c2cc(C)on2)c2cc([N+](=O)[O-])ccc2n1C,1.6
16,Cc1cccc(NC2SC(=O)NC2=O)c1 (stereo not given),> 33.3
17,O=c1c2ccccc2nc(/C=C/c2ccc(Cl)cc2)n1CCO,1.3
18,Cc1cc(NC(=O)c2ccco2)c(=O)n(Cc2c(F)cccc2Cl)c1,< 0.4
19,NS(=O)(=O)c1ccc(CCNC(=O)COC(=O)c2ccc([N+](=O)[O-])o2)cc1,> 59.6
20,CSc1ncc(Cl)c(C(=O)Nc2cccc(Cl)c2)n1,1.1
21,O=[N+]([O-])c1ccc(Oc2ccc(Oc3ccc(C(F)(F)F)cn3)cc2)nc1,0.3
22,Cc1ccccc1S(=O)Cc1ccc(C(=O)NC2CC2)o1 (stereo not given),> 45.5

row,SMILES,solubility kinetic [µg/mL]
1,CCOc1cc(N2CCOCC2)c(OCC)cc1NC(=O)C(C)(C)C,> 52.6
2,O=C(NC1CC2CCCC(C1)N2C(=O)Nc1cccc(F)c1)C1CC1 (stereo not given),16.3
3,Cc1cc(NC(=O)Nc2ccccc2Cl)no1,36.2
4,COc1cc2c(cc1OC)CN(c1ccc(F)cc1[N+](=O)[O-])CC2,17.8
5,CCC(CC)NC(=O)COc1ccc(OC)cc1C=O,30.7
6,CCn1c(SCc2ccccc2)nc2cc(OC)c(OC)cc2c1=O,< 0.4
7,Cc1cccc(CC(C)NC(=O)CCc2nnc(-c3ccccc3)o2)n1 (stereo not given),> 52.6
8,COC(=O)c1ccc(Oc2nc(SC)nc(N(C)C)n2)cc1,2.1
9,COc1cc(C2NC(=S)NC3=C2C(=O)CCC3)ccc1O (stereo not given),> 45.7
10,CC(NC(=O)Nc1cccc([N+](=O)[O-])c1)c1ccc2c(c1)OCO2 (stereo not given),2.2
11,CCN(Cc1ccccc1)C(=O)c1ccc(Cl)cc1[N+](=O)[O-],44.5
12,O=C(COC(=O)c1ccccc1)Nc1ccc2[nH]c(=O)[nH]c2c1,7.2
13,Cc1ccc(C(=O)NCC(=O)N2CCN(c3ccccc3)CC2)cc1,4.4
14,O=C(/C=C/c1cccc(O)c1)c1ccc(N2CCOCC2)cc1,23.2
15,O=C(NC1CCCCCC1)c1ccco1,> 31.1
16,CN1C(=O)NC(c2ccc(O)cc2)C2=C1CN(c1ccc(O)cc1)C2=O (stereo not given),> 52.7
17,O=C(NCc1ccc(Cl)cc1)C1CCN(C(=O)c2ccco2)CC1,> 52
18,CNc1nc(N)c([N+](=O)[O-])c(N2CCCCCC2)n1,39.5
19,O=C(CN1C(=O)NC2NC(=O)NC21)N/N=C/c1ccccc1F (stereo not given),> 48
20,COCC(C)n1c(SCC(=O)NC2CCCCC2C)nc2ccccc2c1=O (stereo not given),> 60.5
21,COc1cccc(C(=O)OCC(=O)NC23CC4CC(CC(C4)C2)C3)c1,19.8
22,Cc1c2n(c3ccccc13)CCC2=O,14.1

row,SMILES,solubility kinetic [µg/mL]
1,CCOC(=O)c1[nH]cnc1C(=O)Nc1ccccc1C,10.3
2,O=C(O)c1ccc(-c2nc3scc(-c4ccccc4)c3c(=O)[nH]2)cc1,> 52.3
3,CC(=O)Nc1ccc(CN2CCCCCC2)cc1,33.9
4,O=C(O)CN1C(=O)C(=O)N(Cc2ccccc2F)C1=O,> 42
5,COc1ccc(CC(=O)O/N=C(\N)c2ccccc2)cc1OC,37.5
6,O=C(O)c1ccn(CSc2cc(Cl)ccc2Cl)n1,> 45.5
7,Cc1cc(C)cc(C(=O)N2CCC3(CC2)NCCc2[nH]cnc23)c1,> 48.7
8,O=C(Nc1cccc(Cl)c1)c1cnccn1,26.5
9,CCC(=O)OC1(c2ccccc2)C(C)CN(C)CC1C.Cl (stereo not given),> 46.8
10,Nc1ccc2nc(SCC(=O)N3CCOCC3)sc2c1,> 46.4
11,O=CNCc1nc2ccccc2n1CCc1ccccc1,> 41.9
12,Cc1nc2ccccc2c(=O)n1-c1ccc(Cl)c(Cl)c1,44
13,COc1cccc(C(=O)Nc2nc3ccccc3s2)c1,1.6
14,COC(=O)C1=C(N)Oc2c(oc(CO)cc2=O)C1c1ccc(F)cc1 (stereo not given),> 52.1
15,COc1cc([N+](=O)[O-])ccc1NC(=O)NCc1ccco1,13.8
16,Cc1cc([N+](=O)[O-])nn1CC(=O)NC(C)c1ccccc1 (stereo not given),> 43.2
17,COc1ccc(S(=O)(=O)N2CCN(CCc3ccccc3)CC2)cc1,1.5
18,Cc1nc(-c2ccc(NC(=O)C3CC3)cc2)cs1,13.3
19,Cc1nc2oc3ccc(Cl)cc3c(=O)c2cc1C(=O)O,> 43.5
